Assay [1] has as its target T1, Signal transducer and activator of transcription 6 (Homo sapiens, UniProt P42226).
T1 sequence (P42226 whole entry): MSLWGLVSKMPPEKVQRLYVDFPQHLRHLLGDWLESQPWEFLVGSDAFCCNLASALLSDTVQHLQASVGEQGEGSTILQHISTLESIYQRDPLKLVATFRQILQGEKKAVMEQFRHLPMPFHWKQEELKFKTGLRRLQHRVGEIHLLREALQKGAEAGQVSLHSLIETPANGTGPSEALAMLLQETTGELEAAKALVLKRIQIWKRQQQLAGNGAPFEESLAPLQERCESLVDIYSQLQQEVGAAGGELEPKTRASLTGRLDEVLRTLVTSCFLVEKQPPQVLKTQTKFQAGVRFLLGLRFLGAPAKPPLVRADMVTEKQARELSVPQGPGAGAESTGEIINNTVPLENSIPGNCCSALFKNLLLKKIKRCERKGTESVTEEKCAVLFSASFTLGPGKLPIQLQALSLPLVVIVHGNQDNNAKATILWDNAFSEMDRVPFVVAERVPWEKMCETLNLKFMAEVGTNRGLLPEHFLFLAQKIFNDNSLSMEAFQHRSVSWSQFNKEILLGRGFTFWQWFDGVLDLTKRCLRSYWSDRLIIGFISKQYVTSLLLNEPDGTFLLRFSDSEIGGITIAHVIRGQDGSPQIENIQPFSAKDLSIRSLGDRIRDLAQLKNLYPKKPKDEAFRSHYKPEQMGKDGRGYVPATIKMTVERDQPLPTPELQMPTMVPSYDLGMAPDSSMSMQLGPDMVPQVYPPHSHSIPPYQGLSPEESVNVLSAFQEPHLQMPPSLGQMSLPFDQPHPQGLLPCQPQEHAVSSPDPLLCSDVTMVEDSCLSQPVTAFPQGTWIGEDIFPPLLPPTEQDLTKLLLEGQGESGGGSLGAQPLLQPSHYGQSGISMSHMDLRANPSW
The experiment in a line: Binding affinity to N-terminal his6-tgged STAT6 (unknown origin) (113 to 658 residues) assessed as inhibition constant incubated for 1 hr by fluorescence polarization assay.

The target in assay [2] is T2, Protein cereblon/Signal transducer and activator of transcription 6 (Homo sapiens, UniProt P42226+Q96SW2). Put plainly: PROTAC activity at STAT6/CRBN in human MV4-11 cells assessed as reduction in STAT6 level incubated for 12 hrs by Western blot analysis. It is filed as cell-based.
Target sequence in this assay (Q96SW2 whole entry, one chain of several): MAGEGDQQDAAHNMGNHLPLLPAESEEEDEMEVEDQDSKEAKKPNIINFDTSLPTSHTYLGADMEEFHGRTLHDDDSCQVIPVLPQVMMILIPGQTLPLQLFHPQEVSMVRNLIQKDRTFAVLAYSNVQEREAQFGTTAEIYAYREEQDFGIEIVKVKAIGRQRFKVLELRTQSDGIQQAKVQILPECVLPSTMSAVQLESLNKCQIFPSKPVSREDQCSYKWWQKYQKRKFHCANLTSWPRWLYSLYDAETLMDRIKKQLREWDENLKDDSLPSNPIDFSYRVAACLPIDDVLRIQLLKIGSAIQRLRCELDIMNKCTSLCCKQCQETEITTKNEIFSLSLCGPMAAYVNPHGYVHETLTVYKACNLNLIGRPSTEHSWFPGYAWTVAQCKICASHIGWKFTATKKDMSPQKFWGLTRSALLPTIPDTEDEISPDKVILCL
Assay [3] concerns the target T2, Protein cereblon/Signal transducer and activator of transcription 6. The experiment in a line: PROTAC activity at STAT6/CRBN in human MV4-11 cells assessed as reduction in STAT6 level at 5 uM incubated for 12 hrs by Western blot analysis relative to control. It counts as cell-based.
Target sequence in this assay (Q96SW2 whole entry partner, one chain of several): as the sequence (Q96SW2 whole entry, one chain of several) above
Assay [4] concerns the target T3, Signal transducer and activator of transcription 5B (Homo sapiens, UniProt P51692).
T3 sequence (P51692 whole entry): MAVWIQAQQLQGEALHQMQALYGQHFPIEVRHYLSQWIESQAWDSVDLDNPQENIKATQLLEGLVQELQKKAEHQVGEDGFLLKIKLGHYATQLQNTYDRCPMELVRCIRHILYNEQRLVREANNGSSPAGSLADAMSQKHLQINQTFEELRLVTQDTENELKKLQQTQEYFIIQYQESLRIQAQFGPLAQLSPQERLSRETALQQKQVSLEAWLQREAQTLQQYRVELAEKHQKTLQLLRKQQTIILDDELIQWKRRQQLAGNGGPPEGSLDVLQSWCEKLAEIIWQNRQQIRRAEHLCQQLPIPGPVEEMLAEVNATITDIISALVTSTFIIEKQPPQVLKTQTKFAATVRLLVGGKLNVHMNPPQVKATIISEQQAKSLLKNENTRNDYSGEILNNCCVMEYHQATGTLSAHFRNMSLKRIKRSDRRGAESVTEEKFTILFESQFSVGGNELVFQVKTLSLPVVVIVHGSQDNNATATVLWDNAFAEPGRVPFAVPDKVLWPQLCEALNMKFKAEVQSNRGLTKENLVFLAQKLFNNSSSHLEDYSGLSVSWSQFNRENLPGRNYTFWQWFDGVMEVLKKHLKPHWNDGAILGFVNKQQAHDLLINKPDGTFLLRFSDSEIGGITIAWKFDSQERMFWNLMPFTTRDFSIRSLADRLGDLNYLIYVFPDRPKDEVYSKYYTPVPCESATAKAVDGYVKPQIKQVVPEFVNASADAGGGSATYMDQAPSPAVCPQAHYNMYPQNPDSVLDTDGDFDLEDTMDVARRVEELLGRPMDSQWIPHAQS
The experiment in a line: Binding affinity to STAT5B (unknown origin) assessed as inhibition constant incubated for 1 hr by fluorescence polarization assay.

Where only a bound is given, the exact number is not on record here.

Take `CC[C@H](NC(=O)c1cc2cc(C(F)(F)P(=O)(O)O)ccc2s1)C(=O)N1CCC[C@H]1C(=O)N1CCO[C@H](c2ccccc2)C1`: the Ki in assay [1] turned out to be 160 nM. The same measure, in the same setting: to `CC(C)(C)[C@H](NC(=O)c1cc2cc(C(F)(F)P(=O)(O)O)ccc2s1)C(=O)N1Cc2ccccc2[C@H]1C(=O)N1CCC[C@H](c2ccccc2)C1` belongs 42 nM; to `O=C(N[C@@H](Cc1ccc2ccccc2c1)C(=O)N1CCC[C@H]1C(=O)N1CCO[C@H](c2ccccc2)C1)c1cc2cc(C(F)(F)P(=O)(O)O)ccc2s1`, 250 nM. With `O=C(N[C@H](C(=O)N1CCC[C@H]1C(=O)N1CCO[C@H](c2ccccc2)C1)C1CC1)c1cc2cc(C(F)(F)P(=O)(O)O)ccc2s1`, in assay [1], the Ki was 120 nM.

Consider `CC(C)(C)c1ccc(C[C@H](NC(=O)c2cc3cc(C(F)(F)P(=O)(O)O)ccc3s2)C(=O)N2CCC[C@H]2C(=O)N2CCO[C@H](c3ccccc3)C2)cc1`, for which the Ki in assay [1] was 160 nM. For the molecule `CC(C)(C)[C@H](NC(=O)c1cc2cc(C(F)(F)P(=O)(O)O)ccc2s1)C(=O)N1CCCCC[C@H]1C(=O)N1CCC[C@H](c2ccccc2)C1`, the inhibition constant Ki in assay [1] stood at 200 nM. As to `CC(C)(C)[C@H](NC(=O)c1cc2cc(C(F)(F)P(=O)(O)O)ccc2s1)C(=O)N1C[C@@H](OCCCCC#Cc2cccc3c2CN(C2CCC(=O)NC2=O)C3=O)C[C@H]1C(=O)N1CCO[C@H](c2ccccc2)C1` (stereo partly drawn), the DC50 in assay [2] was 50 nM. The Emax in assay [3] was greater than 95%. Turning to `CC(C)(C)[C@H](NC(=O)c1cc2cc(C(F)(F)P(=O)(O)O)ccc2s1)C(=O)N1Cc2ccccc2C[C@H]1C(=O)N1CCC[C@H](c2ccccc2)C1`, the Ki in assay [1] was 190 nM. On to `CC(C)(C)[C@H](NC(=O)c1cc2cc(C(F)(F)P(=O)(O)O)ccc2s1)C(=O)N1C[C@@H](OCCCCCCNc2cccc3c2CN(C2CCC(=O)NC2=O)C3=O)C[C@H]1C(=O)N1CCO[C@H](c2ccccc2)C1` (stereo partly drawn), for which the DC50 in assay [2] came to 60 nM. Further, in assay [3], the Emax was greater than 95%. On to `CC(C)(C)[C@H](NC(=O)c1cc2cc(C(F)(F)P(=O)(O)O)ccc2s1)C(=O)N1CCC[C@H]1C(=O)N1Cc2ccccc2C1`, for which the inhibitory constant (Ki) in assay [4] is greater than 5000 nM.

In the case of `CC(C)(C)[C@H](NC(=O)c1cc2cc(C(F)(F)P(=O)(O)O)ccc2s1)C(=O)N1CCCCC[C@H]1C(=O)N1CCO[C@H](c2ccccc2)C1`, the Ki in assay [1] was determined as 120 nM. Still for that read-out and setting: the value for `CC(C)(C)[C@H](NC(=O)c1cc2cc(C(F)(F)P(=O)(O)O)ccc2s1)C(=O)N1Cc2ccccc2[C@H]1C(=O)N1CCO[C@H](c2ccccc2)C1` was 33 nM. As for `CC(C)(C)[C@H](NC(=O)c1cc2cc(C(F)(F)P(=O)(O)O)ccc2s1)C(=O)N1C[C@@H](NC(=O)CCCC#Cc2cccc3c2CN(C2CCC(=O)NC2=O)C3=O)C[C@H]1C(=O)N1CCO[C@H](c2ccccc2)C1` (stereo partly drawn), the DC50 in assay [2] worked out at 260 nM. The Emax in assay [3] was greater than 95%.

Consider `CC(C)(C)[C@H](NC(=O)c1cc2cc(C(F)(F)P(=O)(O)O)ccc2s1)C(=O)N1C[C@@H](OCCCCCCCC#Cc2cccc3c2CN(C2CCC(=O)NC2=O)C3=O)C[C@H]1C(=O)N1CCO[C@H](c2ccccc2)C1` (stereo partly drawn), for which, in assay [2], the DC50 was found to be 60 nM. In addition, in assay [3], the maximum response (Emax) is greater than 95%. Take `O=C(N[C@@H](Cc1ccccc1)C(=O)N1CCC[C@H]1C(=O)N1CCO[C@H](c2ccccc2)C1)c1cc2cc(C(F)(F)P(=O)(O)O)ccc2s1`: the Ki in assay [1] is 340 nM. In the case of `COc1ccc(C[C@H](NC(=O)c2cc3cc(C(F)(F)P(=O)(O)O)ccc3s2)C(=O)N2CCC[C@H]2C(=O)N2CCO[C@H](c3ccccc3)C2)cc1`, the Ki in assay [1] came to 210 nM.

For `C/C(=C\C(=O)N[C@H](C(=O)N1CCC[C@H]1C(=O)N1CCc2ccccc2C1)C(C)(C)C)c1ccc(C(F)(F)P(=O)(O)O)cc1`, the Ki in assay [1] came out at 3500 nM. `CC(=O)N[C@H]1C[C@@H](C(=O)N2CCO[C@H](c3ccccc3)C2)N(C(=O)[C@@H](NC(=O)c2cc3cc(C(F)(F)P(=O)(O)O)ccc3s2)C(C)(C)C)C1`: the Ki in assay [4] was found to be 590 nM. For the molecule `CC(C)(C)[C@H](NC(=O)c1cc2cc(C(F)(F)P(=O)(O)O)ccc2s1)C(=O)N1C[C@@H](NC(=O)CCCCCCC#Cc2cccc3c2CN(C2CCC(=O)NC2=O)C3=O)C[C@H]1C(=O)N1CCO[C@H](c2ccccc2)C1` (stereo partly drawn), the DC50 in assay [2] was found to be 250 nM. The Emax in assay [3] is greater than 95%. On to `O=C(N[C@@H](Cc1ccncc1)C(=O)N1CCC[C@H]1C(=O)N1CCO[C@H](c2ccccc2)C1)c1cc2cc(C(F)(F)P(=O)(O)O)ccc2s1`, for which, in assay [1], the Ki came to 450 nM. On to `O=C(N[C@H](C(=O)N1CCC[C@H]1C(=O)N1CCO[C@H](c2ccccc2)C1)C1CCCCC1)c1cc2cc(C(F)(F)P(=O)(O)O)ccc2s1`, for which the Ki in assay [1] was determined as 90 nM. Same read-out and setting: to `CO[C@H]1C[C@@H](C(=O)N2CCO[C@H](c3ccccc3)C2)N(C(=O)[C@@H](NC(=O)c2cc3cc(C(F)(F)P(=O)(O)O)ccc3s2)C(C)(C)C)C1` belongs 6 nM.

`O=C(N[C@H](C(=O)N1CCC[C@H]1C(=O)N1CCO[C@H](c2ccccc2)C1)C1CCNCC1)c1cc2cc(C(F)(F)P(=O)(O)O)ccc2s1`: the Ki in assay [1] came to 260 nM. Regarding `CN1CCC(C[C@H](NC(=O)c2cc3cc(C(F)(F)P(=O)(O)O)ccc3s2)C(=O)N2CCC[C@H]2C(=O)N2CCO[C@H](c3ccccc3)C2)CC1`, the Ki in assay [1] came to 250 nM. Same read-out and setting: the value for `O=C(N[C@@H](CC1CCNCC1)C(=O)N1CCC[C@H]1C(=O)N1CCO[C@H](c2ccccc2)C1)c1cc2cc(C(F)(F)P(=O)(O)O)ccc2s1` was 180 nM; that for `CC(C)(O)[C@H](NC(=O)c1cc2cc(C(F)(F)P(=O)(O)O)ccc2s1)C(=O)N1CCC[C@H]1C(=O)N1CCO[C@H](c2ccccc2)C1` was 120 nM. For the molecule `CC(C)(C)[C@H](NC(=O)c1cc2cc(C(F)(F)P(=O)(O)O)ccc2s1)C(=O)N1C[C@@H](NC(=O)CCCCCC#Cc2cccc3c2CN(C2CCC(=O)NC2=O)C3=O)C[C@H]1C(=O)N1CCO[C@H](c2ccccc2)C1` (stereo partly drawn), in assay [2], the DC50 is 60 nM. In assay [3], the Emax was greater than 95%. Consider `CC(C)(C)[C@H](NC(=O)c1cc2cc(C(F)(F)P(=O)(O)O)ccc2s1)C(=O)N1C[C@@H](OCCCCCCC#Cc2cccc3c2CN(C2CCC(=O)NC2=O)C3=O)C[C@H]1C(=O)N1CCO[C@H](c2ccccc2)C1` (stereo partly drawn), for which the DC50 in assay [2] came out at 20 nM. In assay [3], the Emax was greater than 95%. For `CC(C)(C)[C@H](NC(=O)c1cc2cc(C(F)(F)P(=O)(O)O)ccc2s1)C(=O)N1C[C@@H](NC(=O)CCCCC#Cc2cccc3c2CN(C2CCC(=O)NC2=O)C3=O)C[C@H]1C(=O)N1CCO[C@H](c2ccccc2)C1` (stereo partly drawn) the same measures were 120 nM and greater than 95%. As to `CC(C)(C)[C@H](NC(=O)c1cc2cc(C(F)(F)P(=O)(O)O)ccc2s1)C(=O)N1CCCC[C@H]1C(=O)N1CCC[C@H](c2ccccc2)C1`, the Ki in assay [1] is 160 nM. Still for that read-out and setting: the value for `CC(C)(C)[C@H](NC(=O)c1cc2cc(C(F)(F)P(=O)(O)O)ccc2s1)C(=O)N1Cc2ccccc2C[C@H]1C(=O)N1CCO[C@H](c2ccccc2)C1` was 83 nM; that for `O=C(N[C@@H](Cc1ccc(Br)cc1)C(=O)N1CCC[C@H]1C(=O)N1CCO[C@H](c2ccccc2)C1)c1cc2cc(C(F)(F)P(=O)(O)O)ccc2s1` was 170 nM.

Regarding `CC(C)(C)[C@H](NC(=O)c1cc2cc(C(F)(F)P(=O)(O)O)ccc2s1)C(=O)N1C[C@H](OCCCCCC#Cc2cccc3c2CN(C2CCC(=O)NC2=O)C3=O)C[C@H]1C(=O)N1CCO[C@H](c2ccccc2)C1` (stereo partly drawn), the DC50 in assay [2] is 130 nM. Besides, in assay [3], the Emax is greater than 95%.

Take `CC(C)(C)[C@H](NC(=O)c1cc2cc(C(F)(F)P(=O)(O)O)ccc2s1)C(=O)N1CCCC[C@H]1C(=O)N1CCO[C@H](c2ccccc2)C1`: in assay [1], the Ki is 110 nM.
